According to patent US20210330611A1, “THERAPY FOR NEUROLOGICAL DISEASES/DISORDERS” (priority 2020, published 2021):
Counter-ions that a name gives are not always drawn. Like-named read-outs stand apart in the source and are kept apart here.

Experiments:
[1] = system: LPS-induced microglia activation; assay: Image-based assay of LPS-induced microglia activation (HTS and dose response); type: cell-based, rat; settings: for inhibition at 10 µM: Rattus norvegicus, Microglia, read-out: LPS % inhibition
[2] = system: primary rat microglia; assay: Cell toxicity (dead cells, size <150 μm2) in coated fibrin (cFib) assay;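 also: share of dead cells sized under 150 µm2 at 10 µM in fibrin-stimulated microglia HTS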
[3] = system: primary rat microglia; assay: Cell toxicity (dead cells, size <150 μm2) in LPS assay
[4] = system: fibrin- and LPS-induced microglia activation; assay: cells; type: cell-based, rat
[5] = system: fibrin-induced microglia activation; assay: Image-based assay of fibrin-induced microglia activation (HTS and dose response); type: cell-based, rat; settings: for inhibition at 10 µM: Rattus norvegicus, Microglia, read-out: Fibrin % inhibition
[6] = primary HTS, 10 μM, LPS-stimulated primary microglia
[7] = primary HTS, 10 μM, fibrin assay, dead cells size <150 μm2
[8] = primary HTS, 10 μM, LPS assay, dead cells size <150 μm2
[9] = primary HTS, 10 μM, fibrin-stimulated primary microglia

SMILES	inhibition at 10 µM [1, 6]	Fibrin % cell toxicity [2, 7]	LPS % cell toxicity [3, 8]	Quadrant (FIG. 5b) ([4]; primary HTS, 10 μM)	inhibition at 10 µM [5, 9]	inhibition at 10 µM ([1]; 48 h, primary microglia HTS, LPS stimulation, increased cell size (>800 μm^2) as marker of activation)	Fibrin % cell toxicity ([2]; primary microglia HTS, fibrin stimulation, decreased size (<150 μm^2) as marker of toxicity)	LPS % cell toxicity ([3]; primary microglia HTS, LPS stimulation, decreased size (<150 μm^2) as marker of toxicity)	Quadrant (FIG. 5b) ([4]; quadrant by fibrin and LPS inhibition in HTS of 1907 compounds)	inhibition at 10 µM ([5]; primary microglia HTS, fibrin stimulation, increased cell size (>800 μm^2) as marker of activation)	LPS % inhibition [1, 6]	Fibrin % inhibition [5, 9]
CC(C)C[C@H]1C(=O)N2CCC[C@H]2[C@]2(O)O[C@](NC(=O)[C@@H]3C=C4c5cccc6[nH]c(Br)c(c56)C[C@H]4N(C)C3)(C(C)C)C(=O)N12 [Bromocriptine Mesylate]	24%	1%	0%	Q4	26%							
CN(C)CCC(c1ccc(Br)cc1)c1ccccn1 (centres unmarked) [Brompheniramine]	-7%	1%	−1%	Q4	-20%							
O=[N+]([O-])C(Br)(CO)CO [Bronopol]						119%	2%	61%	Q1	43%		
Cc1ccc2c(Br)cc(Br)c(OC(=O)c3ccccc3)c2n1 [Broxaldine]	6%	1%	0%	Q4	19%							
Oc1c(Br)cc(Br)c2cccnc12 [Broxyquinoline]	8%	0%	0%	Q4	-25%							
COc1cc2c(cc1OC)[C@@]13CCN4CC5=CCO[C@H]6CC(=O)N2[C@H]1[C@H]6[C@H]5C[C@H]43 [Brucine]	13%	1%	0%	Q4	6%							
CCCC(=O)Nc1ncnc2c1ncn2[C@@H]1O[C@@H]2COP(=O)(O)O[C@H]2[C@H]1OC(=O)CCC [Bucladesine]	24%	1%	0%	Q4	10%							
CCCCOc1ccc(CC(=O)NO)cc1 [Bufexamac]	17%	1%	0%	Q4	-2%							
COc1cc(OC)c(C(=O)CCCN2CCCC2)c(OC)c1 [Buflomedil, Buflomedil Hydrochloride]		1%	1%	Q4							13%	−37%
CCCCNc1cc(C(=O)O)cc(S(N)(=O)=O)c1Oc1ccccc1 [Bumetanide]	18%	1%	1%	Q4	-3%							
CCCCN1CCCCC1C(=O)Nc1c(C)cccc1C (centres unmarked) [Bupivacaine]	23%	1%	0%	Q4	12%							
O=C(NCc1ccccc1)OCCO [Buramate]	17%	1%	0%	Q4	9%							
CCCCN(CCCC)CCCOC(=O)c1ccc(N)cc1 [Butacaine]	3%	0%	0%	Q4	-18%							
CCCCOC(=O)c1ccc(N)cc1 [Butamben]	14%	0%	1%	Q4	-25%							
CN(Cc1ccc(C(C)(C)C)cc1)Cc1cccc2ccccc12 [Butenafine]	-8%	1%	0%	Q4	-4%							
Clc1ccc(CCC(Cn2ccnc2)Sc2c(Cl)cccc2Cl)cc1 (centres unmarked) [Butoconazole]	10%	0%	0%	Q4	-51%							
COc1ccc(O)c(C(C)(C)C)c1 [Butylated Hydroxyanisole]		1%	0%	Q4							26%	−17%
CCCCOC(=O)c1ccc(O)cc1 [Butylparaben]	20%	1%	0%	Q4	-16%							
C=CCN1C[C@H](C(=O)N(CCCN(C)C)C(=O)NCC)C[C@@H]2c3cccc4[nH]cc(c34)C[C@H]21 [Cabergoline]	33%	1%	1%	Q4	20%							
C=C1CC[C@H](O)C/C1=C/C=C1\CCC[C@]2(C)[C@@H]([C@H](C)CCCC(C)(C)O)CC[C@@H]12 [Calcidiol]	8%	1%	0%	Q4	14%							
C=C1/C(=C\C=C2/CCC[C@]3(C)[C@@H]([C@H](C)/C=C/[C@@H](O)C4CC4)CC[C@@H]23)C[C@@H](O)C[C@@H]1O [Calcipotriol]	-8%	1%	0%	Q4	2%							
C=C1/C(=C\C=C2/CCC[C@]3(C)[C@@H]([C@H](C)CCCC(C)(C)O)CC[C@@H]23)C[C@@H](O)C[C@@H]1O [Calcitriol]	0%	0%	1%	Q4	-46%							
O=C([O-])C(O)[C@H](O)[C@@H](O)[C@H](O)[C@H](O)CO.O=C([O-])C(O)[C@H](O)[C@@H](O)[C@H](O)[C@H](O)CO.[Ca+2] (some centres unmarked) [Calcium Gluceptate]		1%	0%	Q4							8%	8%
CCN(CC)CCNC(C(=O)OCCC(C)C)c1ccccc1 (centres unmarked) [Camylofine Dihydrochloride]	15%	1%	1%	Q4	-27%							
CCOc1nc2cccc(C(=O)OC(C)OC(=O)OC3CCCCC3)c2n1Cc1ccc(-c2ccccc2-c2nn[nH]n2)cc1 (centres unmarked) [Candesartan Cilextil]		1%	0%	Q4							10%	−5%
CCOc1nc2cccc(C(=O)O)c2n1Cc1ccc(-c2ccccc2-c2nnn[nH]2)cc1 [Candesartan]	11%	1%	0%	Q4	9%							
C[C@]12CCC(=O)C=C1C=C[C@@H]1[C@@H]2CC[C@@]2(C)[C@H]1CC[C@@]21CCC(=O)O1 [Canrenone]	19%	1%	0%	Q4	-10%							
COc1cc(C(=O)NCCCCCC(=O)O)cc(OC)c1OC [Capobenic Acid]	16%	1%	0%	Q4	9%							
